# Measurements from PubChem BioAssay (NCI).
#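 Cells were grown in 96-well plates and exposed to each compound for 48 hours at five concentrations; endpoints were interpolated linearly between bracketing concentrations, or set to the highest concentration if not reached. GI50 = concentration required for 50% inhibition of growth. At the TGI there is no net growth.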
# Tests used:
# Experiment in all cases: inhibition of tumour cell growth, NCI panel, 48 h
# CCRF-CEM leukemia = system: CCRF-CEM leukemia
# EKVX NSCLC = system: EKVX NSCLC
# HCT-116 colon = system: HCT-116 colon
# HL-60(TB) leukemia = system: HL-60(TB) leukemia
# HOP-92 NSCLC = system: HOP-92 NSCLC
# IGROV1 ovarian = system: IGROV1 ovarian
# K-562 leukemia = system: K-562 leukemia
# M14 melanoma = system: M14 melanoma
# MCF7 breast = system: MCF7 breast
# MDA-MB-435 = system: MDA-MB-435
# NCI-H226 lung = system: NCI-H226 lung
# OVCAR-3 ovarian = system: OVCAR-3 ovarian
# OVCAR-4 ovarian = system: OVCAR-4 ovarian
# PC-3 prostate = system: PC-3 prostate
# RPMI-8226 leukemia = system: RPMI-8226 leukemia
# UO-31 renal = system: UO-31 renal
Structure (SMILES),TGI (CCRF-CEM leukemia) [µM],TGI (EKVX NSCLC) [µM],TGI (HCT-116 colon) [µM],TGI (HL-60(TB) leukemia) [µM],TGI (HOP-92 NSCLC) [µM],GI50 (IGROV1 ovarian) [µM],TGI (IGROV1 ovarian) [µM],TGI (K-562 leukemia) [µM],TGI (M14 melanoma) [µM],TGI (MCF7 breast) [µM],TGI (MDA-MB-435) [µM],GI50 (NCI-H226 lung) [µM],TGI (NCI-H226 lung) [µM],TGI (OVCAR-3 ovarian) [µM],TGI (OVCAR-4 ovarian) [µM],TGI (PC-3 prostate) [µM],GI50 (RPMI-8226 leukemia) [µM],TGI (RPMI-8226 leukemia) [µM],TGI (UO-31 renal) [µM]
COc1cc2c(cc1C)NC(=O)/C2=C/c1cccnc1,> 56.8,47,31.2,26.2,41.9,19.5,> 100,40.2,37.5,32.3,86.1,10.9,24.3,33.3,56.4,> 64.6,12.7,79.1,26.2
CN1CCC23c4c5ccc(Oc6nnnn6-c6ccccc6)c4OC2c2[nH]c4ccccc4c2CC3(O)C1C5 (centres undefined),4.19,24.2,3.45,3.69,7.71,–,23,3.86,3.38,5.12,8.41,–,27.6,22.5,7.53,15,–,6.06,3.18
CC12CCCC(C(=O)O)(C1)[C@H](C(C)(C)C(=O)O)CC2 (some centres undefined),> 100,> 100,> 100,> 100,> 100,–,> 100,> 100,> 100,> 100,> 100,–,> 100,> 100,> 100,> 100,–,> 100,> 100
COC(=O)c1ccccc1/C=C1\Cc2c(C)c3c(c(C)c2C1=O)CCC3,> 100,> 100,> 100,> 100,> 100,–,> 100,> 100,> 100,> 100,> 100,–,> 100,> 100,> 100,> 100,–,> 100,> 100
O=S(=O)(/N=S(/Nc1ccccc1)C(Cl)Cl)c1ccccc1 (centres undefined),> 100,> 100,> 100,> 100,> 100,–,> 100,> 100,> 100,> 100,> 100,–,> 100,> 100,> 100,> 100,–,> 100,> 100
O=C1c2ccccc2-c2nnc(-c3ccc([N+](=O)[O-])cc3)cc21,> 10,> 10,> 10,> 10,> 10,–,> 10,> 10,> 10,> 10,> 10,–,> 10,> 10,> 10,> 10,–,> 10,> 10
